Measured values published in patent publication US11234420B2, “Method for constructing PD-1 gene modified humanized animal model and use thereof” (priority 2016, dated 2022).
“And” between values parts separate entries of the source, which are not always exact repeats. Equal values may be shown once. “Also recorded” adds a separate entry of the source.

Legend:
Assay type in all cases: in vivo
[1] = tested on: mouse colon cancer cells MC38-hPDL1; assay: Combined use of Cisplatin with Keytruda or Tecentriq (Example 11), MC38-hPDL1 tumors in B-hPD-1 mice; conditions: for Tumor volume Day 8: Day 8, group division, Cisplatin 10 mg/kg intravenous once, Keytruda 0.1 mg/kg i.p. once per 3 days x6, Tecentriq 1 mg/kg i.p. once per 2 days x8; for Tumor volume Day 18 / Tumor volume Day 25: doses as Table 9 (Cisplatin 10, Keytruda 0.1, Tecentriq 1 mg/kg); for Tumor volume Day 25: Day 25, end-point; for Tumor free situation: end-point; for weight change compared among groups: mouse, in vivo
Experimental: B-hPD-1 homozygous mice (4-6 weeks old) were taken, 5×10^5 mouse colon cancer cells MC38-hPDL1 were subcutaneously inoculated at right side (the same as Example 10). When the tumor volume was about 100 mm^3, the mice were randomly divided into 6 control groups or treatment groups (n=7/group). For the treatment group, one or two of the above 3 drugs were randomly injected, the dosages were 0.1-10 mg/kg, and a blank solvent was injected for the control group. The tumor volume was measured and the mice were weighed twice a week. Moreover, euthanasia was performed when the tumor volume of a single mouse reached 3000 mm^3.

[2] = tested on: mouse colon cancer cells MC38; assay: Keytruda antibody efficacy at different dosages (Example 10, Experiment 2), MC38 tumors in B-hPD-1 mice; conditions: for Tumor volume Day 8: once per 3 days x6, Day 8, group division; for Tumor volume Day 32: Day 32, end-point; for Survival situation / Tumor free situation: end-point
Experimental: (§1) B-hPD-1 homozygous mice (4-6 weeks old) were taken, mouse colon cancer cells MC38 or modified MC38-hPDL1 (i.e., PD-L1 gene humanized MC38 cells) were subcutaneously inoculated. When the tumor volume was about 100 mm^3, the mice were randomly divided into a control group or a treatment group. For the treatment group, one of the above 2 antibodies was randomly selected and administered at different dosages (0.3-25 mg/kg), and the same volume of a blank solvent was injected for the control group. The tumor volume was measured twice a week and the body weight were measured for each mouse. Moreover, euthanasia was performed when the tumor volume of a single mouse reached 3000 mm^3. The specific experiment scheme was as follows:
(§2) Experiment 2 Keytruda antibody efficacy experiments at different dosages: after subcutaneous inoculation of MC38 cells to mice (5×10^5/100 μL PBS), the anti-human PD-1 antibody Keytruda was administered to the treatment group (n=6/group) through intraperitoneal injection at different dosages (0.3-10 mg/kg), and the same volume of a blank solvent was injected for the control group (n=10/group); the administration frequency was one administration per 3 days for a total of 6 administrations;

[3] = tested on: mouse colon cancer cells MC38; assay: Keytruda antibody efficacy pre-experiment (Example 10, Experiment 1), MC38 tumors in B-hPD-1 mice
Experimental: as §1
as §2, with “1” for “2”, “pre-experiment (n=6/group):” for “experiments at different dosages:”, “at 25 mg/kg” for “(n=6/group)”, “injection,” for “injection at different dosages (0.3-10 mg/kg),”, “group;” for “group (n=10/group);”

[4] = tested on: mouse colon cancer cells MC38-hPDL1; assay: Screening anti-human PD-L1 antibodies (Example 12, Experiment 1), MC38-hPDL1 tumors in B-hPD-1 mice
Experimental: Experiment 1: B-hPD-1 homozygous mice (4-6 weeks old) were taken, 5×10^5 mouse colon cancer cells MC38-hPDL1 were subcutaneously inoculated at right side (the same as Example 10). When the tumor volume was about 100 mm^3, the mice were randomly divided into the control group or treatment groups (n=5/group). For the treatment group, the positive control Tecentriq or one of two anti-human PD-L1 antibodies was randomly selected, all dosages were 3 mg/kg, and a blank solvent was injected for the control group. The administration manner was intraperitoneal injection, once per 2 days for a total of 8 times. The tumor volume was measured twice a week. Moreover, euthanasia was performed when the tumor volume of a single mouse reached 3000 mm^3.

[5] = tested on: modified mouse colon cancer cells MC38-hPDL1; assay: Tecentriq antibody efficacy at different dosages (Example 10, Experiment 4), MC38-hPDL1 tumors in B-hPD-1 mice; conditions: for Tumor volume Day 8: once per 2 days x8, Day 8, group division; for Tumor volume Day 33: Day 33, end-point; for Survival situation / Tumor free situation: end-point
Experimental: as §1
Experiment 4 Tecentriq antibody efficacy experiments at different dosages (n=5/group): subcutaneous inoculation of MC38-PDL1 (2×10^5/100 μL PBS), the […] Tecentriq was administered to the treatment group through intraperitoneal injection at 1-10 mg/kg, and the same volume of a blank solvent was injected for the control group; the administration frequency was one administration per 2 days for a total of 8 administrations;

[6] = tested on: modified mouse colon cancer cells MC38-hPDL1; assay: Tecentriq antibody efficacy pre-experiment (Example 10, Experiment 3), MC38-hPDL1 tumors in B-hPD-1 mice
Experimental: as §1
Experiment 3 Tecentriq antibody efficacy pre-experiment (n=7/group): subcutaneous inoculation of MC38-PDL1 (5×10^5/100 μL PBS), the […] Tecentriq was administered to the treatment group at 3 mg/kg through intraperitoneal injection, and the same volume of a blank solvent was injected for the control group; the administration frequency was one administration per week for a total of 2 weeks;

Compound: N.N.[Cl][Pt][Cl] [Cisplatin]
- Tumor volume Day 8 [1]: 98 ± 24 mm^3
- Tumor volume Day 18 [1]: 401 ± 249 mm^3
- Tumor volume Day 25 [1]: 612±510 mm^3
- TGITV % ([1]; doses as Table 9): 68.2%
- tumor volume compared with control or single-drug groups ([1]; doses as Table 9, in words): has certain tumor inhibitory effect
- Tumor free situation ([1]; doses as Table 9): 0/5
- weight change compared among groups [1]: no significant difference in average weight increase
- mice died ([1]; n=7/group, by experiment end-point): 2

Compound: Keytruda: humanized monoclonal antibody from Merck & Co.; human PD-1 antibody
- TGITV % ([2]; 0.3 mg/kg): 78.2%
- Tumor volume Day 8 ([2]; 0.3 mg/kg i.p.): 113 ± 28 mm^3
- Tumor volume Day 22 ([2]; 0.3 mg/kg): 115 ± 116 mm^3
- Tumor volume Day 32 ([2]; 0.3 mg/kg): 437±515 mm^3
- Survival situation ([2]; 0.3 mg/kg): 6/6
- Tumor free situation ([2]; 0.3 mg/kg): 1/6
- TGITV % ([2]; 1 mg/kg): 94.0%
- Tumor volume Day 8 ([2]; 1 mg/kg i.p.): 112 ± 27 mm^3
- Tumor volume Day 22 ([2]; 1 mg/kg): 89 ± 86 mm^3
- Tumor volume Day 32 ([2]; 1 mg/kg): 201±186 mm^3
- Survival situation ([2]; 1 mg/kg): 6/6
- Tumor free situation ([2]; 1 mg/kg): 2/6
- TGITV % ([2]; 3 mg/kg): 89.0%
- Tumor volume Day 8 ([2]; 3 mg/kg i.p.): 113 ± 25 mm^3
- Tumor volume Day 22 ([2]; 3 mg/kg): 88 ± 94 mm^3
- Tumor volume Day 32 ([2]; 3 mg/kg): 277±397 mm^3
- Survival situation ([2]; 3 mg/kg): 6/6
- Tumor free situation ([2]; 3 mg/kg): 2/6
- TGITV % ([2]; 10 mg/kg): 92.4%
- Tumor volume Day 8 ([2]; 10 mg/kg i.p.): 110 ± 28 mm^3
- Tumor volume Day 22 ([2]; 10 mg/kg): 117 ± 111 mm^3
- Tumor volume Day 32 ([2]; 10 mg/kg): 223±270 mm^3
- Survival situation ([2]; 10 mg/kg): 6/6
- Tumor free situation ([2]; 10 mg/kg): 2/6
- average tumor volume compared with control group ([2]; 0.3, 1, 3 and 10 mg/kg, in words): tumor volume obviously smaller than that of the control group; also recorded: obviously smaller than that of the G1 control group
- Tumor volume Day 6 ([3]; 25 mg/kg intraperitoneal, once per 3 days, 6 administrations, Day 6, group division): 169 ± 24 mm3
- Tumor volume Day 18 ([3]; 25 mg/kg intraperitoneal, once per 3 days, 6 administrations, Day 18): 302 ± 86 mm3
- Tumor volume Day 26 ([3]; 25 mg/kg intraperitoneal, once per 3 days, 6 administrations, Day 26, end-point): 111±77 mm3
- TGITV % ([3]; 25 mg/kg, Tumor Growth Inhibition Value): 102%
- Survival situation ([3]; 25 mg/kg, end-point Day 26): 100%
- Tumor free situation ([3]; 25 mg/kg, end-point Day 26, tumor-free mice/mice): 2 of the 6 and 2/6
- average tumor volume compared with control group ([3]; 25 mg/kg, in words): tumor volume obviously smaller than that of the control group; also recorded: obviously smaller than that of the G1 control group
- toxicity on the animals ([3]; 25 mg/kg, in words): does not have obvious toxicity on the animals
- Tumor volume Day 8 [1]: 98 ± 30 mm^3
- Tumor volume Day 18 [1]: 606 ± 247 mm^3
- Tumor volume Day 25 [1]: 1267±619 mm^3
- TGITV % ([1]; doses as Table 9): 27.7%
- Tumor free situation ([1]; doses as Table 9): 0/7
- weight change compared among groups [1]: no significant difference in average weight increase

Compound: Tecentriq: fully humanized monoclonal antibody from Genentech under Roche; human PD-L1 antibody
- TGITV % ([4]; 3 mg/kg): 112.2%
- Tumor volume Day 10 ([4]; 3 mg/kg i.p., once per 2 days x8, Day 10, group division): 111 ± 25 mm^3
- tumor volume / therapeutic effect compared with control and Tecentriq ([4]; 3 mg/kg, same dosage and frequency, in words): significant difference in the volume of tumors between G2 or G3 and the control group (G1)
- Tumor volume Day 20 ([4]; 3 mg/kg, Day 20): 60 ± 70 mm^3
- Tumor volume Day 27 ([4]; 3 mg/kg, Day 27, end-point): 75±113 mm^3
- Survival situation ([4]; 3 mg/kg, end-point): 5/5
- Tumor free situation ([4]; 3 mg/kg, end-point): 0/5
- animal weight / tolerance compared with control group ([4]; 3 mg/kg, in words): no significant difference in average weight increase
- TGITV % ([5]; 1 mg/kg): 61.2%
- Tumor volume Day 8 ([5]; 1 mg/kg i.p.): 144 ± 31 mm^3
- Tumor volume Day 22 ([5]; 1 mg/kg): 506 ± 289 mm^3
- Tumor volume Day 33 ([5]; 1 mg/kg): 1044±432 mm^3
- Survival situation ([5]; 1 mg/kg): 5/5
- Tumor free situation ([5]; 1 mg/kg): 0/5
- TGITV % ([5]; 3 mg/kg): 93.7%
- Tumor volume Day 8 ([5]; 3 mg/kg i.p.): 147 ± 38 mm^3
- Tumor volume Day 22 ([5]; 3 mg/kg): 418 ± 268 mm^3
- Tumor volume Day 33 ([5]; 3 mg/kg): 1028±963 mm^3
- Survival situation ([5]; 3 mg/kg): 5/5
- Tumor free situation ([5]; 3 mg/kg): 0/5
- TGITV % ([5]; 10 mg/kg): 97.2%
- Tumor volume Day 8 ([5]; 10 mg/kg i.p.): 153 ± 62 mm^3
- Tumor volume Day 22 ([5]; 10 mg/kg): 68 ± 75 mm^3
- Tumor volume Day 33 ([5]; 10 mg/kg): 219±326 mm^3
- Survival situation ([5]; 10 mg/kg): 5/5
- Tumor free situation ([5]; 10 mg/kg): 3/5
- average tumor volume compared with control group ([5]; 1-10 mg/kg, in words): tumor volume obviously smaller than that of the control group; also recorded: obviously smaller than that of the G1 control group
- TGITV % ([6]; 3 mg/kg): 79.7%
- Tumor volume Day 6 ([6]; 3 mg/kg intraperitoneal, once per week, 2 weeks, Day 6, group division): 88 ± 8 mm3
- Tumor volume Day 17 ([6]; 3 mg/kg, Day 17): 208 ± 72 mm3
- Tumor volume Day 20 ([6]; 3 mg/kg, Day 20, end-point): 237±89 mm3
- Survival situation ([6]; 3 mg/kg, end-point): 7/7
- Tumor free situation ([6]; 3 mg/kg, end-point): no mouse cured in the treatment group and 0/7
- average tumor volume compared with control group ([6]; 3 mg/kg, in words): tumor volume obviously smaller than that of the control group
- toxicity on the animals ([6]; 3 mg/kg, in words): does not have obvious toxicity on the animals
- Tumor volume Day 8 [1]: 98 ± 26 mm^3
- Tumor volume Day 18 [1]: 688 ± 409 mm^3
- Tumor volume Day 25 [1]: 1234±977 mm^3
- TGITV % ([1]; doses as Table 9): 29.8%
- Tumor free situation ([1]; doses as Table 9): 0/7
- weight change compared among groups [1]: no significant difference in average weight increase
